Values quoted from earlier work in patent publication US11485742B2, “2-azaspiro[3.4]octane derivatives as M4 agonists” (NOVARTIS AG, priority 2019, dated 2022).

Test system: hyperactivity in mice induced by the stimulant d-amphetamine
Settings: general statement on clinically efficacious muscarinic anti-psychotics; cited from earlier work

For `CCCCCCOc1nsnc1C1=CCCN(C)C1` [xanomeline], the “activity in the amphetamine induced hyperlocomotion assay” value is listed as “active”.
